According to the supplement of paper PMC11061612:

Key:
Assay in all cases: combination Emax (second highest fraction inhibited in the dose matrix, 72 h); higher = more inhibition; extreme values may be limits of the assay
[1] = tested on: DiFi (Colorectal Carcinoma)
Procedure, shortened: (§1)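 Bliss excess equals the observed combination effect minus the expected value EA + EB − EA·EB, where EA and EB are the effects of each agent alone. Combination Emax is the second-highest inhibition within the matrix. Inhibition was scaled from CellTiter-Glo 2.0 luminescence, with 0 set by vehicle wells and 1 by blank wells, after 72 hours of two-drug dosing of cells plated in 1536-well plates.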

[2] = tested on: CAMA-1 (Breast Carcinoma)
Procedure, shortened: as §1

[3] = tested on: KARPAS-45 (T-Lymphoblastic Leukemia)
Procedure, shortened: as §1

[4] = tested on: K-562 (Chronic Myelogenous Leukemia)
Procedure, shortened: as §1

CHP-212 (Neuroblastoma) = tested on: CHP-212 (Neuroblastoma)
Procedure, shortened: as §1

ES8 (Ewing's Sarcoma) = tested on: ES8 (Ewing's Sarcoma)
Procedure, shortened: as §1

[5] = tested on: GR-ST (B-Lymphoblastic Leukemia)
Procedure, shortened: as §1

[6] = tested on: TE-6 (Esophageal Squamous Cell Carcinoma)
Procedure, shortened: as §1

[7] = tested on: MKN28 (Gastric Carcinoma)
Procedure, shortened: as §1

[8] = tested on: HL-60 (Acute Myeloid Leukemia)
Procedure, shortened: as §1

[9] = tested on: NCI-H1792 (Lung Adenocarcinoma)
Procedure, shortened: as §1

[10] = tested on: SR (Other Blood Carcinomas)
Procedure, shortened: as §1

[11] = tested on: SW837 (Colorectal Carcinoma)
Procedure, shortened: as §1

[12] = tested on: SU-DHL-8 (B-Cell Non-Hodgkin's Lymphoma)
Procedure, shortened: as §1

[13] = tested on: HDQ-P1 (Breast Carcinoma)
Procedure, shortened: as §1

WM-115 (Melanoma) = tested on: WM-115 (Melanoma)
Procedure, shortened: as §1

[14] = tested on: BL-41 (Burkitt's Lymphoma)
Procedure, shortened: as §1

[15] = tested on: NCI-H847 (Small Cell Lung Carcinoma)
Procedure, shortened: as §1

[16] = tested on: KM12 (Colorectal Carcinoma)
Procedure, shortened: as §1

[17] = tested on: MS751 (Cervical Carcinoma)
Procedure, shortened: as §1

SMILES | combination Emax [1] | combination Emax [2] | combination Emax [3] | combination Emax [4] | combination Emax (CHP-212 (Neuroblastoma)) | combination Emax (ES8 (Ewing's Sarcoma)) | combination Emax [5] | combination Emax [6] | combination Emax [7] | combination Emax [8] | combination Emax [9] | combination Emax [10] | combination Emax [11] | combination Emax [12] | combination Emax [13] | combination Emax (WM-115 (Melanoma)) | combination Emax [14] | combination Emax [15] | combination Emax [16] | combination Emax [17]
CN(CCO)CC[C@H](CSc1ccccc1)Nc1ccc(S(=O)(=O)NC(=O)c2ccc(N3CCC([C@@H](O)c4ccccc4-c4ccc(Cl)cc4)CC3)cc2)cc1S(=O)(=O)C(F)(F)F [AZD4320] + C=CCn1c(=O)c2cnc(Nc3ccc(N4CCN(C)CC4)cc3)nc2n1-c1cccc(C(C)(C)O)n1 [AZD1775] (first compound max 1 µM, partner max 1 µM) | 0.944 | 0.182 | 1 | 0.871 | 0.809 | 0.962 | 0.765 | 0.556 | 0.536 | 0.956 | 0.696 | 1 | 0.461 | 1 | 0.911 | 0.507 | 1 | 1 | 0.881 | 0.262
COc1cccc(OCCCN)c1-c1cc(Nc2cnc(C#N)cn2)n[nH]1 [Prexasertib] + C=CCn1c(=O)c2cnc(Nc3ccc(N4CCN(C)CC4)cc3)nc2n1-c1cccc(C(C)(C)O)n1 [AZD1775] (first compound max 1 µM, partner max 1 µM) | 0.92 | 0.545 | 1 | 0.98 | 0.811 | 0.945 | 0.82 | 0.767 | 0.725 | 0.97 | 0.915 | 1 | 0.79 | 0.964 | 0.856 | 0.614 | 1 | 1 | 0.862 | 0.701
CC1(C)CCC(CN2CCN(c3ccc(C(=O)NS(=O)(=O)c4ccc(NCC5CCOCC5)c([N+](=O)[O-])c4)c(Oc4cnc5[nH]ccc5c4)c3)CC2)=C(c2ccc(Cl)cc2)C1 [Venetoclax] + C[C@@H](Nc1cc(F)cc(F)c1)c1cc(C(=O)N(C)C)cc2c(=O)cc(N3CCOCC3)oc12 [AZD8186] (first compound max 1 µM, 7x7, partner max 3 µM) | 0.178 | 0.434 | 0.833 | 0.347 | 0.314 | 0.834 | 0.633 | 0.289 | 0.115 | 0.942 | 0.109 | 0.81 | 0.0406 | 0.254 | 0.211 | 0.447 | 0.257 | 0.844 | 0.0675 | 0.169
